{"source": "patent US20260224566A1", "about": "“Obicetrapib and Ezetimibe Combination Treatment and Fixed Dose Pharmaceutical Compositions” (NewAmsterdam Pharma B.V., priority 2023, published 2026)", "key": {"CETP": {"biological_target": "T1, CETP (Homo sapiens, UniProt P11597)", "T1 construct": "from tissue; host or cells: female ApoE*3-Leiden.CETP transgenic mice dosed in vivo", "T1 sequence (P11597 18-493)": "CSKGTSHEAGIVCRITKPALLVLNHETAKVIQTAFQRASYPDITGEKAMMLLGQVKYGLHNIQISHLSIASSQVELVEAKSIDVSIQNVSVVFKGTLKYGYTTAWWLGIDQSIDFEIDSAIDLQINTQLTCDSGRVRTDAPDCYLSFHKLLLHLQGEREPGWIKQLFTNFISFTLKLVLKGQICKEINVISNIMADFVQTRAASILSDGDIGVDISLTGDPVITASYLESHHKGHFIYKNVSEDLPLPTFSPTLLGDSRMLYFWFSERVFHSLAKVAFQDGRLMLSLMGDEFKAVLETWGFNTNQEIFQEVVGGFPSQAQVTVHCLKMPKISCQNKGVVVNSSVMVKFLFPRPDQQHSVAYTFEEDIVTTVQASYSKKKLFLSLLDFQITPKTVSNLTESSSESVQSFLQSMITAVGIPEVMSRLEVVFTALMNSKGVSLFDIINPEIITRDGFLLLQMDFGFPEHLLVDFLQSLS", "test": "Example 13: CETP activity and mass in ApoE*3-Leiden.CETP mice", "assay_type": "in vivo, mouse", "procedure": "(§1) The experimental protocol is illustrated in FIG. 82, with time (t) measured in weeks. Female ApoE*3-Leiden.CETP transgenic mice were fed a Western diet with 0.05% w/w cholesterol (equivalent to daily human intake) with (i) no drug (control), or the same diet containing (ii) obicetrapib alone (2 mg/kg/day), (iii) ezetimibe alone (on average 0.6 mg/kg/day) or (iv) the combination of obicetrapib and ezetimibe."}, "Lp(a)": {"test_system": "Lp(a)", "details": "TA-8995-06, 12 weeks of treatment; cited from earlier work"}, "[1]": {"details": "TA-8995-04, healthy volunteers; cited from earlier work"}, "[2]": {"test_system": "ApoE*3-Leiden.CETP transgenic mice", "test": "Example 12: plasma lipids, VLDL clearance, LDL receptor, fecal and biliary sterols in ApoE*3-Leiden.CETP mice", "assay_type": "in vivo, mouse", "description": "Obicetrapib is a selective cholesteryl ester transfer protein (CETP) inhibitor currently in clinical development for the treatment of hypercholesterolemia and reduction of cardiovascular risk that strongly reduces Apolipoprotein B (ApoB) and low-density lipoprotein cholesterol (LDL-C) and concomitantly increases plasma high-density lipoprotein cholesterol (HDL-C). Ezetimibe reduces absorption of biliary and dietary cholesterol from the small intestine, thereby reducing LDL-C levels. The current study was carried out to elucidate the mechanism of action responsible for the observed decrease in non-HDL-C by obicetrapib monotherapy and in combination with ezetimibe in a translational mouse model for hyperlipidemia and atherosclerosis.\nas §1, with “71,” for “82,”, “(1” for “(on average 0.6”, “ezetimibe. In the experiment, the effects of the treatments on, amongst other things, plasma blood lipids and fecal bile acids and sterols were determined.” for “ezetimibe.”"}, "[3]": {"details": "obicetrapib 2 mg/kg/day, ezetimibe 1 mg/kg/day in Western diet"}}, "data": [{"smiles": "CCOC(=O)N1c2ccc(C(F)(F)F)cc2[C@@H](N(Cc2cc(C(F)(F)F)cc(C(F)(F)F)c2)c2ncc(OCCCC(=O)O)cn2)C[C@H]1CC", "note": "[obicetrapib, {4-[(2-{[3,5-bis(trifluoromethyl)benzyl] [(2R,4S)-1-(ethoxycarbonyl)-2-ethyl-6-(trifluoromethyl)-1,2,3,4-tetrahydroquinolin-4-yl]amino}pyrimidin-5-yl)oxy]butanoic acid}]", "values": [{"measurement": "cetp mass", "setting": "CETP; FIG. 87B", "value": "without statistically significant changes"}, {"measurement": "CETP activity, change", "setting": "CETP; obicetrapib 2 mg/kg/day, ezetimibe on average 0.6 mg/kg/day in Western diet", "value": "−98", "unit": "%"}, {"measurement": "Lp(a) levels", "setting": "Lp(a)", "value": "statistically significant reduction"}, {"measurement": "effect on the QTcF", "setting": "[1]", "value": "no effect"}, {"measurement": "triglycerides levels", "setting": "[2]; FIG. 74", "value": "decreased"}, {"measurement": "liver uptake of VLDL like particles", "setting": "[2]; FIG. 77", "value": "increased"}, {"measurement": "plasma pcsk-9 levels", "setting": "[2]; FIG. 78", "value": "decreased"}, {"measurement": "cholesterol balance", "setting": "[2]; FIG. 81", "value": "decreased"}, {"measurement": "biliary bile acids and biliary bile acid flow", "setting": "[2]; not shown", "value": "did not affect"}, {"measurement": "biliary phospholipids and biliary phospholipid flow", "setting": "[2]; not shown", "value": "did not affect"}, {"measurement": "fecal bile acid excretion, change", "setting": "[2]; obicetrapib 2 mg/kg/day in Western diet", "value": "+41%"}, {"measurement": "ApoA1 levels, increase", "setting": "[2]; [3]", "value": 98, "unit": "%"}, {"measurement": "HDL-C, change", "setting": "[2]; [3]", "value": "+260%"}, {"measurement": "half-life of VLDL-like particles, change", "setting": "[2]; [3]", "value": "−44", "unit": "%"}, {"measurement": "hepatic LDL receptor expression, change", "setting": "[2]; [3]", "value": "+63%"}, {"measurement": "non-HDL-C levels, change", "setting": "[2]; [3]", "value": "−61", "unit": "%"}, {"measurement": "total plasma cholesterol levels, change", "setting": "[2]; [3]", "value": "−42", "unit": "%"}]}]}
